Test system: solid colorectal cancer tumors (metastatic colorectal cancer)
Assay: Clinical study ISO-CC-005 (safety extension cohorts #18/#19 and Follow-up study): tumour response by CT/MRI per RECIST 1.1
Type: in vivo, human
Description: As used herein, the term ORR shall refer to the Objective Response Rate, ie. the proportion of patients with reduction in tumor burden of a predefined amount. […] (Note: the appearance of one or more new lesions is also considered progression). […] 2019. The completion of the study was announced in January 2020. In total, 105 patients were included in the study. Applicant completed the dose definition part of ISO-CC-005 in March 2018, which evaluated the safety and efficacy of arfolitixorin in patients with mCRC. Shortly after, applicant started two additional treatment groups in 2018 to generate more safety and efficacy data, i.e. the safety extension Cohort #18 (Treatment Arm #4) and Cohort #19 (Treatment Arm #6). The aim was to evaluate as many patients as possible from the additional treatment groups after a treatment period of 16 weeks+. On 30 Sep. 2020, applicant announced response assessment data from the two safety extension cohorts (31 patients) treated for 16 weeks or longer (press release: 55% Overall Response Rate on the safety extension cohorts of the ISO-CC-005 Phase Ulla study BioSpace). […] Out of the 31 patients, 17 were treated with an ARFOX regimen. Clinical Study ISO-CC-005 was an exploratory, […] multiple-centre study to be carried out in Stadium IV CRC patients. […] In the Main Study, patients received study treatment with arfolitixorin during eight (8) weeks. Patients eligible for the Follow-up study could participate until reaching progress, but no longer than 18 months. Enrolled patients, stadium IV CRC patients, were aware of the relatively poor prognosis of their disease. Those patients who could continue benefitting from treatment with a […] effective therapy, were offered the possibility to continue study treatment by participating in the Follow-up Study. In the Follow-up Study patients continued to receive the same treatment as assigned during the Main Study period. However, the Investigator could complete the allocated treatment with other therapeutic agents of choice in alignment with standard of care in order to adapt treatment to the patient's specific needs and, in this way, provide optimal care. Response was measured in short- and long-term assessments. During the Main Study phase, only short-term assessments of tumour response were explored by means of objective response rate (ORR) and early tumour shrinkage (ETS). These assessments were to be used as indicators of prognostic factor in ascertaining earlier non responders and to explore the correlation to other factors such as folate levels, tumour biomarkers, or expression levels of certain key genes. […]

Nc1nc2c(c(=O)[nH]1)N1CN(c3ccc(C(=O)N[C@@H](CCC(=O)O)C(=O)O)cc3)C[C@H]1CN2 [arfolitixorin, [6R]-5,10-methylenetetrahydrofolate]
best overall response rate (ORR) (31 patients of the two safety extension cohorts treated 16 weeks or longer, 120 mg/m2 arfolitixorin + 5-FU with irinotecan or oxaliplatin (ARFIRI/ARFOX)): 55%
progression of solid tumors between 8 and 16 weeks after initiating treatment ([6R]-MTHF and 5-FU, treatment period of at least 8 weeks, Phase I/IIa study ISO-CC-005): No statistically significant progression
best ORR in patients diagnosed with RCRC (right-sided CRC patients (13) of the 31-patient group, after 16 weeks and beyond, 120 mg/m2 arfolitixorin + 5-FU + irinotecan or oxaliplatin): 46%
best ORRs (objective response rates) that can be achieved (right-sided CRC patients incl. BRAF/KRAS mutation-positive, protocol over at least 16 weeks with multiple rapid boluses): > 50%

— US20230097085A1, “[6R]-MTHF IN 5-FU BASED CHEMOTHERAPY OF RIGHT-SIDED COLORECTAL CANCER” (Isofol Medical AB, priority 2021, published 2023)
